# Measurements reported in patent EP0326329B1, “Quinazoline derivatives useful as insecticides” (Dow AgroSciences LLC, priority 1988, dated 1989).
# Legend:
# Format in all cases: in vivo
# [1] = test system: Southern corn rootworm (Diabrotica undecimpuctata howardi Barber); test: Mite/insect screen, soil treatment (CRW); details: Diabrotica, percent mortality, soil treatment, read-out: CRW RESULTS %; for mortality at 12 ppm: CRW rate 12.00 ppm; for mortality at 24 ppm: CRW rate 24.00 ppm
# Method in brief: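 Five 2–3 instar larvae were placed on dry sandy soil with a presoaked corn seed after the soil had received 1 mL of compound solution and dried 6–12 h; cups were kept capped at 23°C. Mortality (%) and phytotoxicity were read after standard exposure. Formulation: acetone/alcohol with emulsifiers, water-diluted.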
# [2] = test system: Puccinia recondita tritici (leaf rust); test: Greenhouse Test 1, foliar spray fungicide screen (LEAF RUST), host wheat; details: disease control rating, 400 ppm (+++ at 100 ppm)
# [3] = test system: Botrytis cinerea (gray mold); test: Greenhouse Test 1, foliar spray fungicide screen (GRAY MOLD), host grape berries; details: disease control rating, 400 ppm (+++ at 100 ppm)
# [4] = test system: southern armyworm (Spodopetra eridania Cramer); test: Mite/insect screen, sprayed squash leaves (SAW); details: Spodoptera eridania, percent mortality, read-out: SAW RESULTS %; for mortality at 200 ppm: spray rate 200 ppm; for mortality at 400 ppm: spray rate 400 ppm
# Method in brief: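 Water-diluted formulations of each compound (acetone/alcohol 50:50 with 23 g/L and 13 g/L emulsifier blends) are sprayed over both leaf faces to runoff. After a standard exposure period, percent kill and phytotoxicity are recorded.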
# [5] = test system: Twospotted spider mites (Tetranychus urticae Koch); test: Mite/insect screen, sprayed squash cotyledons (SM); details: Tetranychus urticae, percent mortality, read-out: SM RESULTS %; for mortality at 200 ppm: spray rate 200 ppm; for mortality at 400 ppm: spray rate 400 ppm
# Method in brief: (§1)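 Percent mortality and phytotoxicity are the read-outs, assessed after standard exposure periods. Test solutions, made in 50:50 acetone/alcohol with two sulfonate/nonionic emulsifier blends and diluted in water, are sprayed to runoff on both leaf surfaces, which then dry for one hour.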
# [6] = test system: Pseudoperonospora cubensis (downy mildew); test: Greenhouse Test 1, foliar spray fungicide screen (DOWN MDEW), host squash; details: disease control rating, 400 ppm (+++ at 100 ppm)
# [7] = test system: melon aphids (Aphis gossypii Glover); test: Mite/insect screen, sprayed squash cotyledons (MA); details: Aphis gossypii, percent mortality, read-out: MA RESULTS %; for mortality at 200 ppm: spray rate 200 ppm; for mortality at 400 ppm: spray rate 400 ppm
# Method in brief: as §1
# [8] = test system: Erysiphe graminis tritici (powdery mildew); test: Greenhouse Test 1, foliar spray fungicide screen (POWD MDEW), host wheat; details: disease control rating, 400 ppm (+++ at 100 ppm)
# [9] = test system: Pyricularia oryzae (rice blast); details: disease control rating, foliar spray, host rice; 400 ppm (+++ at 100 ppm)
smiles,measurement,setting,value
"CCOc1ccc(CCCOc2ncnc3ccccc23)cc1 [Example 158, 4-[3-(4-ethoxyphenyl)propoxy]quinazoline]",mortality at 12 ppm,[1],0%
same,mortality at 24 ppm,[1],0%
same,LEAF RUST,[2],+ (+ = 20-89% control at 400 ppm)
same,GRAY MOLD,[3],- (- = 0-19% control at 400 ppm)
same,mortality at 200 ppm,[4],0%
same,mortality at 400 ppm,[4],0%
same,mortality at 200 ppm,[5],0%
same,mortality at 400 ppm,[5],60%
same,DOWN MDEW,[6],+++ (+++ = 90-100% control at 100 ppm)
same,mortality at 200 ppm,[7],0%
same,mortality at 400 ppm,[7],40%
same,POWD MDEW,[8],+ (+ = 20-89% control at 400 ppm)
same,RICE BLAST,[9],++ (++ = 90-100% control at 400 ppm)
"Fc1ccc(CCOc2ncnc3c(F)cccc23)c(F)c1 [Example 159, 8-fluoro-4-[2-(2,4-difluorophenyl)ethoxy]quinazoline]",mortality at 12 ppm,[1],0%
same,mortality at 24 ppm,[1],0%
same,LEAF RUST,[2],+++ (+++ = 90-100% control at 100 ppm)
same,GRAY MOLD,[3],- (- = 0-19% control at 400 ppm)
same,mortality at 200 ppm,[4],0%
same,mortality at 400 ppm,[4],0%
same,mortality at 200 ppm,[5],90%
same,mortality at 400 ppm,[5],80%
same,DOWN MDEW,[6],+++ (+++ = 90-100% control at 100 ppm)
same,mortality at 200 ppm,[7],80%
same,mortality at 400 ppm,[7],100%
same,POWD MDEW,[8],+++ (+++ = 90-100% control at 100 ppm)
same,RICE BLAST,[9],+++ (+++ = 90-100% control at 100 ppm)
"CC(COc1ncnc2ccccc12)c1ccc(Oc2ccccc2)cc1 (stereo not drawn) [Example 161, 4-[2-(4-phenoxyphenyl)propoxy]quinazoline]",mortality at 12 ppm,[1],0%
same,mortality at 24 ppm,[1],100%
same,LEAF RUST,[2],++ (++ = 90-100% control at 400 ppm)
same,GRAY MOLD,[3],- (- = 0-19% control at 400 ppm)
same,mortality at 200 ppm,[4],20%
same,mortality at 400 ppm,[4],100%
same,mortality at 200 ppm,[5],70%
same,mortality at 400 ppm,[5],0%
same,DOWN MDEW,[6],- (- = 0-19% control at 400 ppm)
same,mortality at 200 ppm,[7],30%
same,mortality at 400 ppm,[7],0%
same,POWD MDEW,[8],+ (+ = 20-89% control at 400 ppm)
same,RICE BLAST,[9],+ (+ = 20-89% control at 400 ppm)
"Fc1ccccc1Oc1ccc(CCOc2ncnc3ccccc23)cc1 [Example 162, 4-(2-[4-(2-fluorophenoxy)phenyl]ethoxy]quinazoline]",mortality at 12 ppm,[1],0%
same,mortality at 24 ppm,[1],100%
same,LEAF RUST,[2],+++ (+++ = 90-100% control at 100 ppm)
same,GRAY MOLD,[3],- (- = 0-19% control at 400 ppm)
same,mortality at 200 ppm,[4],60%
same,mortality at 400 ppm,[4],0%
same,mortality at 200 ppm,[5],100%
same,mortality at 400 ppm,[5],100%
same,DOWN MDEW,[6],+++ (+++ = 90-100% control at 100 ppm)
same,mortality at 200 ppm,[7],80%
same,mortality at 400 ppm,[7],80%
same,POWD MDEW,[8],+++ (+++ = 90-100% control at 100 ppm)
same,RICE BLAST,[9],+++ (+++ = 90-100% control at 100 ppm)
"Fc1cccc2c(OCCc3cccc(Oc4ccccc4)c3)ncnc12 [Example 163, 8-fluoro-4-[2-(3-phenoxyphenyl)ethoxy]quinazoline]",mortality at 12 ppm,[1],0%
same,mortality at 24 ppm,[1],0%
same,LEAF RUST,[2],+++ (+++ = 90-100% control at 100 ppm)
same,GRAY MOLD,[3],- (- = 0-19% control at 400 ppm)
same,mortality at 200 ppm,[4],80%
same,mortality at 400 ppm,[4],40%
same,mortality at 200 ppm,[5],0%
same,mortality at 400 ppm,[5],20%
same,DOWN MDEW,[6],+++ (+++ = 90-100% control at 100 ppm)
same,mortality at 200 ppm,[7],80%
same,mortality at 400 ppm,[7],80%
same,POWD MDEW,[8],+++ (+++ = 90-100% control at 100 ppm)
same,RICE BLAST,[9],+++ (+++ = 90-100% control at 100 ppm)
"c1ccc(Oc2ccc(CCCc3ncnc4ccccc34)cc2)cc1 [Example 164, 4-[3-(4-phenoxyphenyl)propyl]quinazoline]",mortality at 12 ppm,[1],0%
same,mortality at 24 ppm,[1],0%
same,LEAF RUST,[2],+++ (+++ = 90-100% control at 100 ppm)
same,GRAY MOLD,[3],- (- = 0-19% control at 400 ppm)
same,mortality at 200 ppm,[4],40%
same,mortality at 400 ppm,[4],40%
same,mortality at 200 ppm,[5],80%
same,mortality at 400 ppm,[5],20%
same,DOWN MDEW,[6],+++ (+++ = 90-100% control at 100 ppm)
same,mortality at 200 ppm,[7],80%
same,mortality at 400 ppm,[7],80%
same,POWD MDEW,[8],+ (+ = 20-89% control at 400 ppm)
same,RICE BLAST,[9],+++ (+++ = 90-100% control at 100 ppm)
"CC(C)C(COc1ncnc2ccccc12)c1ccccc1 (stereo not drawn) [Example 165, 4-(3-methyl-2-phenylbutoxy)quinazoline]",mortality at 12 ppm,[1],0%
same,mortality at 24 ppm,[1],0%
same,LEAF RUST,[2],++ (++ = 90-100% control at 400 ppm)
same,GRAY MOLD,[3],- (- = 0-19% control at 400 ppm)
same,mortality at 200 ppm,[4],0%
same,mortality at 400 ppm,[4],0%
same,mortality at 200 ppm,[5],0%
same,mortality at 400 ppm,[5],0%
same,DOWN MDEW,[6],++ (++ = 90-100% control at 400 ppm)
same,mortality at 200 ppm,[7],50%
same,mortality at 400 ppm,[7],80%
same,POWD MDEW,[8],++ (++ = 90-100% control at 400 ppm)
same,RICE BLAST,[9],++ (++ = 90-100% control at 400 ppm)
"Clc1cccc2c(NCCc3cccc(Oc4ccccc4)c3)ncnc12 [Example 166, 8-chloro-N-[2-(3-phenoxyphenyl)ethyl]-4-quinazolinamine]",mortality at 12 ppm,[1],0%
same,mortality at 24 ppm,[1],0%
same,LEAF RUST,[2],+++ (+++ = 90-100% control at 100 ppm)
same,GRAY MOLD,[3],- (- = 0-19% control at 400 ppm)
same,mortality at 200 ppm,[4],0%
same,mortality at 400 ppm,[4],0%
same,mortality at 200 ppm,[5],0%
same,mortality at 400 ppm,[5],0%
same,DOWN MDEW,[6],+ (+ = 20-89% control at 400 ppm)
same,mortality at 200 ppm,[7],0%
same,mortality at 400 ppm,[7],60%
same,POWD MDEW,[8],+ (+ = 20-89% control at 400 ppm)
same,RICE BLAST,[9],++ (++ = 90-100% control at 400 ppm)
"CC(C)Cc1ccc(C(C)COc2ncnc3ccccc23)cc1 (stereo not drawn) [Example 167, 4-[2-[4-(2-methylpropyl)phenyl]propoxy]quinazoline]",mortality at 12 ppm,[1],0%
same,mortality at 24 ppm,[1],0%
same,LEAF RUST,[2],+ (+ = 20-89% control at 400 ppm)
same,GRAY MOLD,[3],- (- = 0-19% control at 400 ppm)
same,mortality at 200 ppm,[4],0%
same,mortality at 400 ppm,[4],0%
same,mortality at 200 ppm,[5],90%
same,mortality at 400 ppm,[5],80%
same,DOWN MDEW,[6],- (- = 0-19% control at 400 ppm)
same,mortality at 200 ppm,[7],90%
same,mortality at 400 ppm,[7],80%
same,POWD MDEW,[8],+ (+ = 20-89% control at 400 ppm)
same,RICE BLAST,[9],+++ (+++ = 90-100% control at 100 ppm)
"CC(C)c1ccc(CCCCOc2ncnc3ccccc23)cc1 [Example 168, 4-[4-[4-(i-propyl)phenyl]butoxy]quinazoline]",mortality at 12 ppm,[1],0%
same,mortality at 24 ppm,[1],0%
same,LEAF RUST,[2],+ (+ = 20-89% control at 400 ppm)
same,GRAY MOLD,[3],- (- = 0-19% control at 400 ppm)
same,mortality at 200 ppm,[4],0%
same,mortality at 400 ppm,[4],0%
same,mortality at 200 ppm,[5],0%
same,mortality at 400 ppm,[5],0%
same,DOWN MDEW,[6],++ (++ = 90-100% control at 400 ppm)
same,mortality at 200 ppm,[7],0%
same,mortality at 400 ppm,[7],80%
same,POWD MDEW,[8],+++ (+++ = 90-100% control at 100 ppm)
same,RICE BLAST,[9],+++ (+++ = 90-100% control at 100 ppm)
"CCOc1ccc(CCOc2ncnc3c(F)cccc23)cc1 [Example 170, 4-[2-(4-ethoxyphenyl)ethoxy]-8-fluoroquinazoline]",mortality at 12 ppm,[1],0%
same,mortality at 24 ppm,[1],0%
same,LEAF RUST,[2],+++ (+++ = 90-100% control at 100 ppm)
same,GRAY MOLD,[3],- (- = 0-19% control at 400 ppm)
same,mortality at 200 ppm,[4],0%
same,mortality at 400 ppm,[4],100%
same,mortality at 200 ppm,[5],20%
same,mortality at 400 ppm,[5],100%
same,DOWN MDEW,[6],+++ (+++ = 90-100% control at 100 ppm)
same,mortality at 200 ppm,[7],80%
same,mortality at 400 ppm,[7],100%
same,POWD MDEW,[8],+++ (+++ = 90-100% control at 100 ppm)
same,RICE BLAST,[9],+++ (+++ = 90-100% control at 100 ppm)
"Clc1ccc2c(NCCc3cccc(Oc4ccccc4)c3)ncnc2c1 [Example 171, 7-chloro-N-[2-(3-phenoxyphenyl)ethyl]-4-quinazolinamine]",mortality at 12 ppm,[1],0%
same,mortality at 24 ppm,[1],0%
same,LEAF RUST,[2],+++ (+++ = 90-100% control at 100 ppm)
same,GRAY MOLD,[3],- (- = 0-19% control at 400 ppm)
same,mortality at 200 ppm,[4],0%
same,mortality at 400 ppm,[4],0%
same,mortality at 200 ppm,[5],20%
same,mortality at 400 ppm,[5],40%
same,DOWN MDEW,[6],+++ (+++ = 90-100% control at 100 ppm)
same,mortality at 200 ppm,[7],80%
same,mortality at 400 ppm,[7],80%
same,POWD MDEW,[8],+++ (+++ = 90-100% control at 100 ppm)
same,RICE BLAST,[9],+++ (+++ = 90-100% control at 100 ppm)
